Results: US20020169364A1, “Brainstem and limbic disorder (BALD)” (priority 2000, published 2002)
Structures can show the parent of a compound that is named as a salt.

Assay: Clinical use in treatment protocol of the BALD syndrome
Assay type: in vivo
Conditions: for clinical outcome, pulmonary problems: BALD patients with pulmonary problems (restrictive lung disease); for clinical outcome in treatment of the BALD syndrome: patients with BALD syndrome, core treatment steps (calcium channel blocker, anti-viral/anti-fungal, chelating agent)
Text: The treatment protocol consists of ruling in or out of the BALD syndrome then treatment of the core pathology of the syndrome if present. This consists of treatment of the most acute aspects of the BALD syndrome followed by more conservative treatments of the more chronic symptoms or pathology. If diagnosis progresses to brainstem or other neuron damage with significant inflammation the treatment consists of immediate inflammation reduction and stabilization of the immune system. This is followed by conservative treatments as indicated in the diagnosis of the disorder.
The treatment proceeds in steps.
Step one in the treatment of the disorder would start with drugs that are known to block calcium intake channels of neurons. […] The usual dosage can be 30 mg. three times daily more or less in the clinical judgment of the physician.
Step three in the treatment of a BALD syndrome involving viral infection to any degree is to administer anti-viral and anti-fungal drugs to the patient. […] This is a synthetic acyclic purine nucleoside analog.
This Is a synthetic broad spectrum bis-trazole antifungal agent. […] This is a synthetic trazole antifungal agent with the chemical name of itraconazole.
Step seven is to administer a chelating agent to the patient to eliminate toxic heavy metals from the system.
Azulfadine should be started for patients with irritable bowel syndrome.

SMILES	clinical outcome in treatment of the BALD syndrome	other results
COc1cc(C(=O)NS(=O)(=O)c2ccccc2C)ccc1Cc1cn(C)c2ccc(NC(=O)OC3CCCC3)cc12 [Accolate, zafirlukast]		clinical outcome, pulmonary problems: clinically successful
Nc1nc2c(ncn2COCCO)c(=O)[nH]1 [Acyclovir, acycloguanosine]	Clinical success	
O=C(O)c1cc(/N=N/c2ccc(S(=O)(=O)Nc3ccccn3)cc2)ccc1O [Azulfadine, sulfasalazine]		clinical outcome, irritable bowel syndrome (BALD patients with irritable bowel syndrome): successful drug in clinical usage
O=C([O-])CN(CCN(CC(=O)[O-])CC(=O)O)CC(=O)O.[Na+].[Na+] [EDTA, edate disodium]	Clinical success	
O=C1CN=C(c2ccccc2Cl)c2cc([N+](=O)[O-])ccc2N1 [Klonapin, clonazepam]		clinical outcome, anti-anxiety (BALD patients, anti-anxiety drug): clinically successful
CC(C)(O)c1ccccc1CC[C@@H](SCC1(CC(=O)O)CC1)c1cccc(/C=C/c2ccc3ccc(Cl)cc3n2)c1 [Singulair, sodium montelukast]		clinical outcome, pulmonary problems: Clinical success
CC(C)[C@H](N)C(=O)OCCOCn1cnc2c(=O)[nH]c(N)nc21 [Valtrex, valacyclovir hydrochloride]	clinically successful	
OC(Cn1cncn1)(Cn1cncn1)c1ccc(F)cc1F [difulcan, fluconazole]	good clinical results	
